# Assay results published in patent publication US12398154B2, “Azaquinazoline pan-KRas inhibitors” (Mirati Therapeutics, Inc., priority 2020, dated 2025).
# Experiments:
# KRas G13D = molecular target: T1, KRas G13D (Homo sapiens, UniProt P01116, G13D); assay: KRas binding assay (TR-FRET displacement);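 further: One-hour room temperature incubation before TR-FRET reading, IC50 from a four-parameter curve fit to percent-of-control data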
# T1 construct: Biotinylated KRas (corresponding to amino acids 1-169, produced at Accelegan Inc.); biotin (biotinylated); purchased Accelegan Inc
# T1 sequence (P01116 1-169 isoform P01116-2 G13D): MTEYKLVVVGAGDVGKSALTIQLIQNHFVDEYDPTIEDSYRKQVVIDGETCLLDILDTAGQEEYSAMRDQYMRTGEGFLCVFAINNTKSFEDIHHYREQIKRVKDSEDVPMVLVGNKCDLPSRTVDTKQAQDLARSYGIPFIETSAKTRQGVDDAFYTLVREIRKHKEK
# Procedure: (§1) The ability of a compound to bind to KRas was measured using a TR-FRET displacement assay. […] After a 60-minute incubation at room temperature, the reaction was measured using a BMG LABTECH CLARIO star Plus via TR-FRET. […] The POC values were fit to a 4-parameter IC50 equation and the IC50 value reported.
# KRas Q61H = molecular target: T2, KRas Q61H (Homo sapiens, UniProt P01116, Q61H); assay: KRas binding assay (TR-FRET displacement);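 further: TR-FRET signal read after one hour at room temperature, IC50 derived by four-parameter fitting of percent-of-control values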
# T2 construct: Biotinylated KRas (corresponding to amino acids 1-169, produced at Accelegan Inc.); biotin (biotinylated); purchased Accelegan Inc
# T2 sequence (P01116 1-169 isoform P01116-2 Q61H): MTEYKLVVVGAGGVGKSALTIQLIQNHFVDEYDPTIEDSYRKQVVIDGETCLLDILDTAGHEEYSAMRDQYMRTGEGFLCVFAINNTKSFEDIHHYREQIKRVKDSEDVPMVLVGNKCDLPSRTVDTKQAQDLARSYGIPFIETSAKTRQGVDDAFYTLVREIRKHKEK
# Procedure: as §1
# KRas G12D = KRas G12D (Homo sapiens, UniProt P01116, G12D); assay: biochemical;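 further: TR-FRET displacement binding assay on KRas, read after a one-hour incubation at room temperature, IC50 fitted from percent-of-control values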
# KRas G12D, sequence (P01116 1-169 isoform P01116-2 G12D): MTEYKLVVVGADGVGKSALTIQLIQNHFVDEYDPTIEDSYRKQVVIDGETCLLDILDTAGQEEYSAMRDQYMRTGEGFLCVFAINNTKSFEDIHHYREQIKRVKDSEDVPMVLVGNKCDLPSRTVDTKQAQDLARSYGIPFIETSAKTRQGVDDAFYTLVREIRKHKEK
# Procedure: as §1
# KRas G12V = KRas G12V (Homo sapiens, UniProt P01116, G12V); assay: biochemical;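 further: KRas binding measured by TR-FRET displacement at room temperature, IC50 fitted from percent of control values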
# KRas G12V, sequence (P01116 1-169 isoform P01116-2 G12V): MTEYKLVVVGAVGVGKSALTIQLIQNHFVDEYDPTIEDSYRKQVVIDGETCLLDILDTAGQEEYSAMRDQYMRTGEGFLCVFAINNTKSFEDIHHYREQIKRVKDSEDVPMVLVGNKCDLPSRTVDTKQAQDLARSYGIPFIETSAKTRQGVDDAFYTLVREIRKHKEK
# Procedure: as §1
# KRas G12R = KRas G12R (Homo sapiens, UniProt P01116, G12R); assay: biochemical;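 further: TR-FRET displacement assay of compound binding to KRas, read after one hour at room temperature, potency from a four-parameter fit of percent-of-control values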
# KRas G12R, sequence (P01116 1-169 isoform P01116-2 G12R): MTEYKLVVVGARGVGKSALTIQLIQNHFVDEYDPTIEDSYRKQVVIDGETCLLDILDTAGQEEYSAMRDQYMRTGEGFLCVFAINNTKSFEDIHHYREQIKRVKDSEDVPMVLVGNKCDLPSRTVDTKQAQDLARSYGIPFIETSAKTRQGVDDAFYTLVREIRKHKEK
# Procedure: as §1
# KRas G12A = KRas G12A (Homo sapiens, UniProt P01116, G12A); assay: biochemical;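 further: binding to KRas measured by TR-FRET displacement after one hour at room temperature, IC50 from a four-parameter fit of percent-of-control values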
# KRas G12A, sequence (P01116 1-169 isoform P01116-2 G12A): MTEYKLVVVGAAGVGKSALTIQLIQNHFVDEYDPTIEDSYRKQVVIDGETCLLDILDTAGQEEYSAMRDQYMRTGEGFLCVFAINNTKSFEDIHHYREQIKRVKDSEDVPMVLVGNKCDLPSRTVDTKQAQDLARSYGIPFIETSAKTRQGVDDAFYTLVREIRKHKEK
# Procedure: as §1
# KRas G12S = KRas G12S (Homo sapiens, UniProt P01116, G12S); assay: biochemical;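 further: TR-FRET displacement binding to KRas, read after one hour incubation at room temperature, IC50 from four-parameter fit of percent of control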
# KRas G12S, sequence (P01116 1-169 isoform P01116-2 G12S): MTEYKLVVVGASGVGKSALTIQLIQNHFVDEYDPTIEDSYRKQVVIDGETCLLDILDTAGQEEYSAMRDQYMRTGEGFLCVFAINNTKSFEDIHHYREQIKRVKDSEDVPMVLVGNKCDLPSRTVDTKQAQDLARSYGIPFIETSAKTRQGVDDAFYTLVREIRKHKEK
# Procedure: as §1
# KRas G12C = KRas G12C (Homo sapiens, UniProt P01116, G12C); assay: biochemical;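 further: binding to KRas assessed by TR-FRET displacement after one hour incubation at room temperature, potency fitted from percent-of-control values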
# KRas G12C, sequence (P01116 1-169 isoform P01116-2 G12C): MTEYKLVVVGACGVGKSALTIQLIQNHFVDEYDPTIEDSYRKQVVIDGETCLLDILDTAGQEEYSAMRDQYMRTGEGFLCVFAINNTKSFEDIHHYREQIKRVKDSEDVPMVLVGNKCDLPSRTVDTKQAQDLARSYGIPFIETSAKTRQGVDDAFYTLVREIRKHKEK
# Procedure: as §1
# KRas WT = KRas WT (Homo sapiens, UniProt P01116); assay: biochemical;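 further: binding to KRas read as TR-FRET displacement after a one-hour room-temperature incubation, IC50 derived from percent-of-control values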
# KRas WT, sequence (P01116 1-169 isoform P01116-2): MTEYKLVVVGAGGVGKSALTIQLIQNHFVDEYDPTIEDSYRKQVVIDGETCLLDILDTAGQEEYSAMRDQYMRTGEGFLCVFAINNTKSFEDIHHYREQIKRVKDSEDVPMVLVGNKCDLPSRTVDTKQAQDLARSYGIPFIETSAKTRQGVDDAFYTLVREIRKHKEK
# Procedure: as §1
Compound,IC50 (KRas G13D) [nM],IC50 (KRas Q61H) [nM],IC50 (KRas G12D) [µM],IC50 (KRas G12V) [µM],IC50 (KRas G12R) [µM],IC50 (KRas G12A) [µM],IC50 (KRas G12S) [µM],IC50 (KRas G12C) [µM],IC50 (KRas WT) [µM]
"OC1CC2(CCCN(c3nc(OCC45CCCN4CCC5)nc4c(F)c(-c5cccc6cccc(F)c56)ncc34)C2)C1 (stereo not drawn) [Example 235, 6-(8-fluoro-7-(8-fluoronaphthalen-1-yl)-2-((hexahydro-1H-pyrrolizin-7a-yl)methoxy)pyrido[4,3-d]pyrimidin-4-yl)-6-azaspiro[3.5]nonan-2-ol]",2710,3360,2.66,1.7,2.87,2.15,2.01,1.65,2.65
"O=C1CC(CNc2nc(OCC34CCCN3CCC4)nc3c(F)c(-c4cccc5cccc(F)c45)ncc23)C(=O)N1 (stereo not drawn) [Example 236, 3-(((8-fluoro-7-(8-fluoronaphthalen-1-yl)-2-((hexahydro-1H-pyrrolizin-7a-yl)methoxy)pyrido[4,3-d]pyrimidin-4-yl)amino)methyl)pyrrolidine-2,5-dione]",2460,4440,2.33,0.623,3.35,3.39,0.897,2.04,3.5
"CNS(=O)(=O)C1CCCN(c2nc(OCC34CCCN3CCC4)nc3c(F)c(-c4cccc5cccc(F)c45)ncc23)C1 (stereo not drawn) [Example 237, 1-(8-fluoro-7-(8-fluoronaphthalen-1-yl)-2-((hexahydro-1H-pyrrolizin-7a-yl)methoxy)pyrido[4,3-d]pyrimidin-4-yl)-N-methylpiperidine-3-sulfonamide]",8290,6380,9.56,7.61,9.74,5.34,8.92,7.59,4.36
"O=S1(=O)CCCN1C1CCCN(c2nc(OCC34CCCN3CCC4)nc3c(F)c(-c4cccc5cccc(F)c45)ncc23)C1 (stereo not drawn) [Example 239, 2-(1-(8-fluoro-7-(8-fluoronaphthalen-1-yl)-2-((hexahydro-1H-pyrrolizin-7a-yl)methoxy)pyrido[4,3-d]pyrimidin-4-yl)piperidin-3-yl)isothiazolidine 1,1-dioxide]",1640,2670,8.65,4.93,4.81,1.98,2.21,1.61,1.83
"NS(=O)(=O)NC1CCCN(c2nc(OCC34CCCN3CCC4)nc3c(F)c(-c4cccc5cccc(F)c45)ncc23)C1 (stereo not drawn) [Example 240, 8-fluoro-7-(8-fluoronaphthalen-1-yl)-2-(1,2,3,5,6,7-hexahydropyrrolizin-8-ylmethoxy)-4-[3-(sulfamoylamino)piperidin-1-yl]pyrido[4,3-d]pyrimidine]",350,498,1.14,1.55,0.777,0.586,0.492,0.597,0.478
"O=CNC1CCCN(c2nc(OCC34CCCN3CCC4)nc3c(F)c(-c4cccc5cccc(F)c45)ncc23)C1 (stereo not drawn) [Example 242, N-(1-(8-fluoro-7-(8-fluoronaphthalen-1-yl)-2-((hexahydro-1H-pyrrolizin-7a-yl)methoxy)pyrido[4,3-d]pyrimidin-4-yl)piperidin-3-yl)formamide]",7860,13600,8.03,7.63,13,8.19,6.23,6.96,11
"NC(=O)NC1CCN(c2nc(OCC34CCCN3CCC4)nc3c(F)c(-c4cccc5cccc(F)c45)ncc23)CC1 [Example 243, 1-(1-(8-fluoro-7-(8-fluoronaphthalen-1-yl)-2-((hexahydro-1H-pyrrolizin-7a-yl)methoxy)pyrido[4,3-d]pyrimidin-4-yl)piperidin-4-yl)urea]",2960,3580,25.4,2.19,1.06,1.05,1.81,1.15,3.32
"O=CNC1CCN(c2nc(OCC34CCCN3CCC4)nc3c(F)c(-c4cccc5cccc(F)c45)ncc23)CC1 [Example 244, N-(1-(8-fluoro-7-(8-fluoronaphthalen-1-yl)-2-((hexahydro-1H-pyrrolizin-7a-yl)methoxy)pyrido[4,3-d]pyrimidin-4-yl)piperidin-4-yl)formamide]",4860,5080,18.2,3.57,3.1,1.85,3.06,2.82,5.14
